One series deals with HCV (J399EM). Nature of the series: HCV copy number in serum/peripheral blood and liver tissue by qPCR in HCV-infected C/O-Tg mice. Format: in vivo. As to conditions: two weeks of treatment, vs control (FIG. 7B, 8C). The protocol:
This mouse model of HCV infection was first reproduced and confirmed. HCV (J399EM, 1 mL, TCID50=2×10^7) was used for tail vein infusion in C/O-Tg mice and wild-type littermate control mice. […] The above results are consistent with the observation in patients infected with HCV (Fahey S, Dempsey E, Long A. The role of chemokines in acute and chronic hepatitis C infection. Cellular and Molecular Immunology 11, 25 (2014)).
Since CD8+ T cells are generally thought to play an important role in viral infection and clearance, the expression profile of CD8+T immune checkpoint molecules during HCV infection was first tested. […] Based on this, it was tested whether targeting T cell immune checkpoint molecules can inhibit the chronic infection process.
In order to further investigate the therapeutic effect of NKG2A blockade on chronic HCV infection, mice were administered with NKG2A blocking antibodies two weeks after HCV infection. Up-regulation of NKG2A expression has been observed at this stage (FIG. 3C) and administration was lasted for two weeks (FIG. 6A).

In the next series the test system is liver NK cells. In words: in vitro NK function assay: liver NK cells of treated mice co-cultured with target cells Yac-1, flow cytometry (CD107a, granzyme B, IFN-γ). The class given is in vivo, C/O-Tg mice. The note with it: two weeks of treatment with Qa-1 siRNA, vs control siRNA (FIG. 8D). (In general: In flow cytometry, cells or beads pass a laser one at a time.)

Another series relates to Qa-1. Nature of the series: Qa-1 mRNA expression of different cell components in liver tissue after siRNA treatment. The class given is in vivo, C/O-Tg mice. The note with it: tail vein injection, two weeks of treatment, vs control siRNA (FIG. 8B). The source says:
On the other hand, it was investigated whether suppression of the expression of immune checkpoint molecules can promote the elimination of HCV.

Regarding “cholesterol-conjugated siRNA against Qa-1: cholesterol-conjugated siRNA against Qa-1, sequence GAAGAGGAGGAGACACAUA, synthesized by GenePharma (cholesterol-conjugated, position not given here)”, the “HCV replication (copy numbers of virus in serum and liver tissues)” value in the series on HCV (J399EM) was “inhibited HCV replication”. Further, the “depletion process of NK cells (CD107a and IFN-γ)” value in the series with liver NK cells is reported as “reversed”. In addition, the “Qa-1 expression (mRNA) in liver cell components” value in the series on Qa-1 is “selectively down-regulated Qa-1 in hepatocytes”.

For the origin of these results see patent publication US20220143060A1, “METHOD FOR TREATING INFECTIOUS DISEASES BY TARGETING NK CELL IMMUNE CHECKPOINT” (priority 2019, published 2022).
